Test results reported in the supplement of paper PMC4862054.

Columns and labels:
Assay in all cases: normalised response (% of control), CellTox Green; higher = less cell death (100 = DMSO, 0 = benzethonium chloride kill control)
Conditions in all cases: incubation time: 72 h
BT-474 = test system: BT-474
How it was run: (§1)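 The table gives the normalised signal for a single concentration in each entry. Breast cancer cell lines were seeded (20 µl suspension) into 384-well plates holding compound at 5 concentrations in 10-fold steps over a compound-specific 10,000-fold range and incubated 72 h, then read for CellTox Green fluorescence (485/520 nm) and CellTiter-Glo luminescence. Normalisation on each plate used 0.1 % DMSO (100) and a positive kill control (0).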

HCC1937 = test system: HCC1937
How it was run: as §1

MDA-MB-231 = test system: MDA-MB-231
How it was run: as §1

BT-549 = test system: BT-549
How it was run: as §1

MDA-MB-468 = test system: MDA-MB-468
How it was run: as §1

HDQ-P1 = test system: HDQ-P1
How it was run: as §1

CAL-120 = test system: CAL-120
How it was run: as §1

| Structure (SMILES) | normalised response (BT-474) [%] | normalised response (HCC1937) [%] | normalised response (MDA-MB-231) [%] | normalised response (BT-549) [%] | normalised response (MDA-MB-468) [%] | normalised response (HDQ-P1) [%] | normalised response (CAL-120) [%] |
| --- | --- | --- | --- | --- | --- | --- | --- |
| Cn1c(=O)c(F)c(Nc2ccc(I)cc2F)c2c(=O)n(C[C@@H](O)CO)cnc21 [TAK-733] (1000 nM) | 102 | 102 | 64.2 | 119 | 87.6 | 94.6 | 87.2 |
| CN1CCN(c2ccc3nc(-c4c(N)c5c(F)cccc5[nH]c4=O)[nH]c3c2)CC1 [Dovitinib] (10000 nM) | 99.9 | 97.9 |  | 121 | 126 | 108 | 101 |
| COc1cccc2c1C(=O)c1c(O)c3c(c(O)c1C2=O)C[C@@](O)(C(C)=O)C[C@@H]3O[C@H]1C[C@H](N)[C@H](O)[C@H](C)O1 [Daunorubicin] (100 nM) | 99.5 |  | 104 | 124 | 96.9 |  | 105 |
| CC(C)(C)c1cc(NC(=O)Nc2ccc(-c3cn4c(n3)sc3cc(OCCN5CCOCC5)ccc34)cc2)no1 [Quizartinib] (1000 nM) | 101 | 96 | 124 | 127 | 174 | 90.1 | 103 |
| O=C(c1ccc(OCCN2CCCCC2)cc1)c1c(-c2ccc(O)cc2)sc2cc(O)ccc12 [Raloxifene] (1000 nM) | 97 | 119 | 103 | 106 | 120 | 105 | 104 |
| C#Cc1cccc(Nc2ncnc3cc(OC)c(OCCCCCCC(=O)NO)cc23)c1 [CUDC-101] (10000 nM) | 10.6 | 97.7 | 25.8 | 108 | -22.4 | 84.6 | 29.1 |
| CC(=O)O[C@H]1C(=O)[C@@]2(C)[C@H]([C@H](OC(=O)c3ccccc3)[C@]3(O)C[C@H](OC(=O)[C@H](O)[C@@H](NC(=O)c4ccccc4)c4ccccc4)C(C)=C1C3(C)C)[C@]1(OC(C)=O)CO[C@@H]1C[C@@H]2O [Paclitaxel] (1000 nM) | 43.1 | 71 | -30 | 56.5 | -32.9 | 81.5 | 82.8 |
| Cn1cnc2c(F)c(Nc3ccc(Br)cc3F)c(C(=O)NOCCO)cc21 [MEK-162] (100 nM) | 101 | 60.2 | 50.2 | 111 | 139 | 87.6 | 99.8 |
| CS(=O)(=O)OCCCCOS(C)(=O)=O [Busulfan] (10000 nM) | 101 | 106 | 108 | 108 | 96.5 | 95.2 | 103 |
| CC(C)C[C@H](NC(=O)[C@H](Cc1ccccc1)NC(=O)c1cnccn1)B(O)O [Bortezomib] (1000 nM) | 59.7 | 25.3 | -42.8 | 43.7 | -84 | 9.5 | 14.2 |
| COC1=CC(c2cc3ccccc3[nH]2)=N/C1=C\c1[nH]c(C)cc1C [Obatoclax] (1000 nM) | 97.3 | -5.92 | 64.3 | 113 | 107 |  | 90.5 |
| C[C@@]1(C(=O)Nc2ccc(F)nc2)CCCN1c1nc(Nc2cc(C3CC3)n[nH]2)c2cccn2n1 (10000 nM) | 95.3 | 104 | 49.8 | 65.3 | 49.8 | 34.9 | 26.9 |
| COc1c(C)cnc(Cn2cnc3c(Cl)nc(N)nc32)c1C [BIIB021] (10000 nM) | 49.4 | 107 | 48.7 | 130 | 96.8 | 40.1 | 94.9 |
| Cn1c(=O)c(F)c(Nc2ccc(I)cc2F)c2c(=O)n(C[C@@H](O)CO)cnc21 [TAK-733] (100 nM) | 103 | 108 | 71.3 | 89.6 | 127 | 97.3 | 97 |
| COc1ccc(C2=N[C@@H](c3ccc(Cl)cc3)[C@@H](c3ccc(Cl)cc3)N2C(=O)N2CCNC(=O)C2)c(OC(C)C)c1 [Nutlin-3] (10000 nM) | 97.6 |  | 108 | 105 | 107 | 103 | 98.2 |
| COc1ncc(-c2ccc3nccc(-c4ccnnc4)c3c2)cc1NS(=O)(=O)c1ccc(F)cc1F (1000 nM) | 36.8 | 7.68 | 64.3 | 70.9 | -111 | 78.8 | 102 |
| COc1ncc(-c2ccc3nccc(-c4ccnnc4)c3c2)cc1NS(=O)(=O)c1ccc(F)cc1F (100 nM) | 69.1 | 90.5 | 91.2 | 94.8 | 89.5 | 86 | 102 |
| C[C@@H]1C=C2C(=O)O[C@@H]3CC[C@H](C1)[C@]23O [Galiellalactone] (5000 nM) | 100 | 115 | 107 | 117 |  | 98.5 | 58.8 |

| Structure (SMILES) | normalised response (BT-474) [%] | normalised response (HCC1937) [%] | normalised response (MDA-MB-231) [%] | normalised response (BT-549) [%] | normalised response (MDA-MB-468) [%] | normalised response (HDQ-P1) [%] | normalised response (CAL-120) [%] |
| --- | --- | --- | --- | --- | --- | --- | --- |
| CS(=O)(=O)OCCCCOS(C)(=O)=O [Busulfan] (100000 nM) | 100 | 105 | 99.8 | 110 |  |  | 101 |
| O=c1[nH]c(=O)n([C@H]2C[C@H](O)[C@@H](CO)O2)cc1F [Floxuridine] (10000 nM) | 104 | 114 | 108 | 113 | 119 | 66.2 | 93.8 |
| CCCC(CCC)C(=O)O [Valproic acid] (10000 nM) | 85 | 76 |  | 117 | 86.2 |  | 106 |
| O=c1[nH]c(=O)n([C@H]2C[C@H](O)[C@@H](CO)O2)cc1F [Floxuridine] (1000 nM) | 102 | 126 | 86 | 111 | 125 | 98 | 98.4 |
| C#Cc1cccc(Nc2ncnc3cc(OC)c(OCCCCCCC(=O)NO)cc23)c1 [CUDC-101] (1000 nM) | 83.7 | 113 | 49.2 | 142 | 35.1 | 101 | 90.9 |
| COc1cccc2c1C(=O)c1c(O)c3c(c(O)c1C2=O)C[C@@](O)(C(C)=O)C[C@@H]3O[C@H]1C[C@H](N)[C@H](O)[C@H](C)O1 [Daunorubicin] (1000 nM) | 101 | 137 | 127 | 145 | 322 | 101 | 99.2 |
| CCOc1cc2ncc(C#N)c(Nc3ccc(OCc4ccccn4)c(Cl)c3)c2cc1NC(=O)/C=C/CN(C)C [Neratinib] (100 nM) | 78.8 | 96 | 109 | 105 | 75.7 | 99.5 | 106 |
| C[C@@H]1C=C2C(=O)O[C@@H]3CC[C@H](C1)[C@]23O [Galiellalactone] (50000 nM) | 102 | 81.2 | 121 | 98.7 | 135 | 92.3 | 102 |
| CN1CCN(c2ccc3nc(-c4c(N)c5c(F)cccc5[nH]c4=O)[nH]c3c2)CC1 [Dovitinib] (1000 nM) | 97.7 | 128 | 88.5 | 131 | 167 | 106 | 94 |
| CC(=O)O[C@H]1C(=O)[C@@]2(C)[C@H]([C@H](OC(=O)c3ccccc3)[C@]3(O)C[C@H](OC(=O)[C@H](O)[C@@H](NC(=O)c4ccccc4)c4ccccc4)C(C)=C1C3(C)C)[C@]1(OC(C)=O)CO[C@@H]1C[C@@H]2O [Paclitaxel] (100 nM) | 49.4 | 84.6 | -43 | 65.9 | 4.61 | 77.4 | 81.6 |
| O=c1[nH]cc(F)c(=O)[nH]1 [Fluorouracil] (10000 nM) | 105 | 104 | 105 | 95.8 | -57.8 |  | 105 |
| Cn1cnc2c(F)c(Nc3ccc(Br)cc3F)c(C(=O)NOCCO)cc21 [MEK-162] (1000 nM) | 101 | 54.6 | 39.1 | 97.4 | 120 | 67.1 | 93.1 |
| CS(=O)(=O)CCNCc1ccc(-c2ccc3ncnc(Nc4ccc(OCc5cccc(F)c5)c(Cl)c4)c3c2)o1 [Lapatinib] (1000 nM) | 76.4 |  |  | 93.4 | 84.8 | 96.8 | 99.2 |
| CCS(=O)(=O)c1cccc(-c2cc(C(=O)NC3CCN(C)CC3)c(C)c3[nH]c4ncc(C)cc4c23)c1 [TAK-901] (100 nM) | 101 | 91.5 | 92.3 | 116 | -31.9 |  | 102 |
| CC(C)(C)c1cc(NC(=O)Nc2ccc(-c3cn4c(n3)sc3cc(OCCN5CCOCC5)ccc34)cc2)no1 [Quizartinib] (100 nM) | 100 |  | 116 | 132 | 139 | 103 | 99.7 |
| COC1=C2C[C@@H](C)C[C@H](OC)[C@H](O)[C@@H](C)/C=C(\C)[C@H](OC(N)=O)[C@@H](OC)/C=C\C=C(/C)C(=O)NC(=CC1=O)C2=O [Geldanamycin] (1000 nM) | 95 | 105 | 107 | 112 |  | 102 | 102 |
| O=C(c1ccc(OCCN2CCCCC2)cc1)c1c(-c2ccc(O)cc2)sc2cc(O)ccc12 [Raloxifene] (10000 nM) | 95.4 | 82.8 | 62.7 | 101 | 82.7 | 50.4 |  |
